# Experiments:
# substance P receptor = molecular target: T1, substance P receptor (Homo sapiens, UniProt P25103); test: Radioligand receptor binding inhibitory activity using receptor from human lymphoblast cells (IM-9), 125I-BHSP; settings: human IM-9 cell receptor, 25° C., 30 minutes, pH 7.4, n=1
# T1 construct: The receptor was prepared from human lymphoblast cells (IM-9); endogenous in cells; host or cells: IM-9 human lymphoblast cells (crude membrane preparation)
# Method: Radioligand receptor binding inhibitory activity
# Binding inhibitory activity using receptor from human lymphoblast cells (IM-9)
# The method of A. Margaret "Molecular Pharmacology 42, p.458 (1992)" was modified and used. The receptor was prepared from human lymphoblast cells (IM-9). IM-9 cells (2×10^5 cells/ml) were inoculated and incubated for 3 days (one liter), which was then subjected to centrifuge for 5 minutes at 500×g to obtain cell pellets. The pellets were washed once with phosphate buffer (Flow Laboratories, CAT. No. 28-103-05), which were then crushed using Polytron.homogenizer "Kinematika, Germany" in 30 ml of 50 mM Tris-HCl buffer (pH 7.4) containing 120 mM sodium chloride, 5 mM potassium chloride, 2 μg/ml chymostatin, 40 μg/ml bacitracin, 5 μg/ml phosphoramidon, 0.5 mM phenylmethyl sulfonyl fluoride, 1 mM ethylenediamine tetra-acetic acid, which was subjected to centrifuge at 40,000×g for 20 minutes. The residue was washed twice with 30 ml of the above-mentioned buffer, which was then preserved frozen (-80° C.) as a specimen of the receptor.
# The specimen was suspended in a reaction buffer (50 mM Tri-HCl buffer (pH 7.4), 0.02% bovine serum albumin, 1 mM phenylmethylsulfonyl fluoride, 2 μg/chymostatin, 40 μg/ml bacitracin, 3 mM manganese chloride) and 100 ul portion was the suspension was used in the reaction. After addition of the sample and ^125 I-BHSP (0.46 KBq), the reaction was allowed to proceed in 0.2 ml of reaction buffer at 25° C. for 30 minutes. The amount of nonspecific binding was determined by adding substance P at a final concentration of 2×10^-6 M. After the reaction, using a cell harvester (290 PHD, Cambridge Technology, Inc, U.S.A.), rapid filtration was carried out through a glass filter (GF/B, Whatman, U.S.A.) to stop the reaction. After washing three times with 250 ul of 50 mM of Tris-HCl buffer (pH 7.4) containing 0.02% bovine serum albumin, the radioactivity remaining on the filter was determined with a gamma counter. Before use, the filter was immersed in 0.1% polyethyleneimine for 24 hours and air-dried. […] (Radioligand means substance P labelled with ^125 I.) The number of this experiment is one.
# [1] = test system: plasma extravasation induced by capsaicin in trachea; test: Inhibitory effect on plasma extravasation induced by capsaicin in trachea of guinea pigs; type: in vivo, guinea pigs (Hartley type white male); settings: Cavia porcellus, iv, 5 min, 5 min before capsaicin (150 μg/kg i.v.), guinea pig trachea, n=6; for inhibition in vivo at 0.03 mg/kg: 0.03 mg/kg i.v.; for inhibition in vivo at 0.1 mg/kg: 0.1 mg/kg i.v.
# Method: Inhibitory effect on plasma extravasation induced by capsaicin in trachea of guinea pigs
# Guinea pigs (Hartley type white male guinea pigs), (n=6) were anesthetized with 35 mg/kg of pentobarbital injected intraperitoneally (i.p.), then test compounds were administered intravenously (i.v.). After 5 minutes, a mixed solution of capsaicin (150 μg/kg) and Evans' blue dye (20 mg/kg) was administered intravenously to cause reaction. Ten minutes later, test animals were sacrificed by cutting the aorta, then perfused through pulmonary artery with 50 ml of physiological saline. The trachea was excised, and its wet weight was measured. The trachea was incubated at room temperature in 1 ml of acetone-0.3% sodium sulfate (7:3) overnight and Evans' blue dye was extracted from the trachea. The extract solution was centrifuged at 2800 rpm for 5 minutes. The amount of Evans' blue dye in the supernatant was quantified by measuring absorbance at […].
# Plasma extravasation was expressed in terms of the amount of Evans' blue dye (μg) relative to the weight of the trachea (g). The efficacy of the drug was evaluated by calculating the % inhibition in accordance with the following formula. [formula] A: the amount of Evan's blue dye (μg/g) in each test animal B: the mean amount of Evan's blue dye (μg/g) of the group untreated with capsaicin.
# C: the mean amount of Evan's blue dye (μg/g) of control group
# T1 sequence (P25103 whole entry): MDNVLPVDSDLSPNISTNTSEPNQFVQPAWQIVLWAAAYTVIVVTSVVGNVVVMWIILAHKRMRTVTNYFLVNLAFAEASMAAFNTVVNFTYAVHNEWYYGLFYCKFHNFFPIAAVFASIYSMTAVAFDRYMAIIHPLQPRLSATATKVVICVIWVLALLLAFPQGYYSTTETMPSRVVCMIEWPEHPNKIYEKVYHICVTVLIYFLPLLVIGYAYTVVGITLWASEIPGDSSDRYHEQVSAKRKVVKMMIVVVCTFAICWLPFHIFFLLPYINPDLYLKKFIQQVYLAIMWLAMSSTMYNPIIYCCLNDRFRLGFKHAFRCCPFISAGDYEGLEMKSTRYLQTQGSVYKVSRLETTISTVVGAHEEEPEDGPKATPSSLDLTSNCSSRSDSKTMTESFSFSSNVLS
Structure (SMILES),IC50 (substance P receptor),inhibition in vivo at 0.03 mg/kg [1],inhibition in vivo at 0.1 mg/kg [1]
"Cc1ccccc1-c1c2c(c(=O)n(C)c1C(=O)N(C)Cc1cc(C(F)(F)F)cc(C(F)(F)F)c1)CCCN2 [Example 26, N-[3,5-Bis(trifluoromethyl)benzyl]-1,2,3,4,5,6-hexahydro-N, 6-dimethyl-8-(2-methylphenyl)-5-oxo-7-pyrido[4,3-b]pyridinecarboxamide]",0.05 nM,46.2%,
"CN(Cc1cc(C(F)(F)F)cc(C(F)(F)F)c1)C(=O)c1c(-c2ccccc2)c2c(c(=O)n1C)N(C)CCC2 [Example 49, N-[3,5-Bis(trifluoromethyl)benzyl]-1,2,3,4,7,8-hexahydro-5-phenyl-N,1,7-trimethyl-8-oxo-6-pyrido[3,4-b]pyridinecarboxamide]",1.3 nM,,66.7%
"CN(Cc1cc(C(F)(F)F)cc(C(F)(F)F)c1)C(=O)c1c(-c2ccc(F)cc2)c2ccncc2c(=O)n1C [Example 8, N-[3,5-Bis(trifluoromethyl)benzyl]-4-(4-fluorophenyl)-1,2-dihydro-N, 2-dimethyl-1-oxo-3-pyrido[3,4-c]pyridine carboxamide]",0.17 nM,,64.9%
"Cc1ccc(-c2c3c(c(=O)n(C)c2C(=O)N(C)Cc2cc(C(F)(F)F)cc(C(F)(F)F)c2)CN(C)CC3)cc1 [Example 59, N-[3,5-Bis(trifluoromethyl)benzyl]-1,2,5,6,7,8-hexahydro-N,2,7-trimethyl-4-(4-methylphenyl)-1-oxo-3-pyrido[3,4-c]pyridinecarboxamide]",0.12 nM,55%,
"Cc1ccc(-c2c(C(=O)N(C)Cc3cc(C(F)(F)F)cc(C(F)(F)F)c3)n(C)c(=O)c3cnccc23)cc1 [Example 58, N-[3,5-Bis(trifluoromethyl)benzyl]-1,2-dihydro-N, 2-dimethyl-4-(4-methylphenyl)-1-oxo-3-pyrido[3,4-c]pyridinecarboxamide]",0.72 nM,,35.2%
"CN(Cc1cc(C(F)(F)F)cc(C(F)(F)F)c1)C(=O)c1c(-c2ccccc2)c2c(c(=O)n1C)CNCC2 [Example 54, N-[3,5-Bis(trifluoromethyl)benzyl]-1,2,5,6,7,8-hexahydro-N,2-dimethyl-1-oxo-4-phenyl-3-pyrido[3,4-c]pyridinecarboxamide]",0.4 nM,,48.3%
"CN(Cc1cc(C(F)(F)F)cc(C(F)(F)F)c1)C(=O)c1c(-c2ccc(F)cc2)c2scnc2c(=O)n1C [Example 41, N-[3,5-Bis(trifluoromethyl)benzyl]-7-(4-fluorophenyl)-4,5-dihydro-N, 5-dimethyl-4-oxo-6-thiazolo[4,5-c]pyridinecarboxamide]",1.1 nM,,46.9%

# Source: patent US5585385A, “Heterocyclic compounds, their production and use as tachykinin reactor antagonists” (Takeda Chemical Industries, Ltd., priority 1993, dated 1996)
